Common to all, as to type: in vivo
Assay [1] concerns Medicago truncatula plants. Briefly: Lipid peroxidation (leaf MDA/TBARS content) in drought-stressed plants. The following applies: for leaf MDA content (lipid peroxidation): diluted in 70% (v/v) MetOH, FIG. 1. An excerpt:
Cellular damage in leaves can be measured by determining lipid peroxidation (Malondialdehyde [MDA] content) and hydrogen peroxide (H2O2) levels. Lipid peroxidation is a widely used stress indicator of plant membranes. For example, the method described by Heath and Packer is the basic protocol used or adapted in numerous studies dealing with lipid peroxidation. See Heath R L, Packer L. 1968, Photoperoxidation in isolated chloroplasts. I. Kinetics and stoichiometry of fatty acid peroxidation. Archives in Biochemistry and Biophysics 125, 189-198. Measuring hydrogen peroxide levels is also well known in the art.
Mature (40 d) Medicago truncatula ecotype Jemalong A17 plants were used for the purposes of this study. These were grown in soil medium under controlled, optimal growth conditions and were then subjected to drought stress. Drought was imposed by withholding watering for 9 d (for detailed growth and stress conditions see Filippou et al., 2011). Both NOSH and NOSH-aspirin were applied at 100 μM concentration by foliar spraying at the start of stress imposition. The hybrid donors were diluted in 70% (v/v) and 30% (v/v) methanol, 20% (v/v) acetone or 20% (v/v) DMSO. Cellular damage was evaluated by lipid peroxidation levels (TBARS content) and hydrogen peroxide (H2O2) content as previously described (Filippou et al., 2011; Tanou et al., 2012), while osmoprotective capacity was evaluated by proline content (ninhydrin assay) as previously described (Antoniou et al., 2013). Real-time RT-PCR gene expression analysis was carried out using a Biorad IQ5 thermocycler as previously described (Filippou et al., 2013b). Relative quantification of gene expression and statistical analysis of all qRT-PCR data (pairwise fixed reallocation randomization test) were performed using the REST software according to Pfaffl et al. (2002). The actin 11 gene was used as a housekeeping reference gene. All analyses were carried out using three independent biological pools of samples as replicates (with a minimum of three independent plants per pooled sample).
(§1) An examination of cellular damage levels was performed by means of spectrophotometric determination of lipid peroxidation.

In assay [2] the test system is Medicago sativa plants. Briefly: Physiological measurements (stomatal conductance, chlorophyll fluorescence) in drought-stressed plants. The following applies: 100 μM; vs drought-stressed samples; FIG. 12. On the procedure:
(§2) Mature (42 d) Medicago sativa plants were used for the purposes of this study. These were grown in soil medium under controlled, optimal growth conditions and were then subjected to drought stress. Drought was imposed by withholding watering until drought symptoms (loss of turgour, wilting, chlorosis) were observed (6 d after stress imposition). Samples were then re-watered to observe recovery potential after 1 day (7 d). Both NOSH and NOSH-aspirin were applied at 100 μM concentration by foliar spraying at the start of stress imposition. The hybrid donors were diluted in 30% (v/v) methanol. Physiological parameters (stomatal conductance and chlorophyll fluorescence) were measured with a DT-Porometer AP4 (Delta-TDevices, Cambridge, UK) and an OptiSci OS-30p chlorophyll fluorometer (Opti-Sciences, Hudson, N.H., USA) respectively (Filippou et al., 2013). Chlorophyll fluorescence (Fv/Fm) of leaves represents the maximum photochemical efficiency of photosystem II (PSII). Cellular damage was evaluated by lipid peroxidation levels (TBARS content), nitric oxide (NO) content (nitrosative stress) and hydrogen peroxide (H2O2) content (oxidative stress) as previously described (Filippou et al., 2011; Tanou et al., 2012), while osmoprotective capacity was evaluated by proline content (ninhydrin assay) as previously described (Antoniou et al., 2013). Antioxidant enzyme activities (SOD and CAT) were measured as previously described (Filippou et al., 2014). Real-time RT-PCR gene expression analysis was carried out using a Biorad IQ5 thermocycler as previously described (Filippou et al., 2013). Relative quantification of gene expression and statistical analysis of all qRT-PCR data (pairwise fixed reallocation randomization test) were performed using the REST software according to Pfaffl et al. (2002). The actin 11 gene was used as a housekeeping reference gene. All analyses were carried out using three independent biological pools of samples as replicates (with a minimum of fifteen independent plants per pooled sample). The experimental setup is shown schematically in FIG. 8.

Assay [3] deals with Medicago sativa plants. Briefly: Lipid peroxidation (leaf MDA/TBARS content) in drought-stressed plants. The following applies: FIG. 13. On the procedure:
as §2, §1

Assay [4] relates to Medicago sativa plants. Briefly: Nitric oxide content in leaves of drought-stressed plants. The following applies: 100 μM; vs drought-stressed samples; FIG. 14B. On the procedure:
as §2, with “Antioxidant enzyme activities (SOD and CAT) were measured as previously described (Filippou et al., 2014). Real-time RT-PCR gene expression analysis was carried out using a Biorad IQ5 thermocycler as previously described (Filippou et al., 2013). Relative quantification of gene expression and statistical analysis of all qRT-PCR data (pairwise fixed reallocation randomization test) were performed using the REST software according to Pfaffl et al. (2002). The actin 11 gene was used as a housekeeping reference gene. All analyses were carried out using three independent biological pools of samples as replicates (with a minimum of fifteen independent plants per pooled sample). The experimental setup is shown schematically in FIG. 8.” left out

Assay [5] deals with Medicago sativa plants. Briefly: Proline content (ninhydrin assay) in leaves of drought-stressed plants. The following applies: 100 μM; vs drought-stressed alone samples; FIG. 15. On the procedure:
as §2, with “Antioxidant enzyme activities (SOD and CAT) were measured as previously described (Filippou et al., 2014). Real-time RT-PCR gene expression analysis was carried out using a Biorad IQ5 thermocycler as previously described (Filippou et al., 2013). Relative quantification of gene expression and statistical analysis of all qRT-PCR data (pairwise fixed reallocation randomization test) were performed using the REST software according to Pfaffl et al. (2002). The actin 11 gene was used as a housekeeping reference gene. All analyses were carried out using three independent biological pools of samples as replicates (with a minimum of fifteen independent plants per pooled sample). The experimental setup is shown schematically in FIG. 8.” left out

Assay [6] concerns Medicago sativa plants. Briefly: Antioxidant enzyme activities (SOD and CAT) in leaves of drought-stressed plants. The following applies: 7 d, after rewatering, vs stressed-alone plants; for SOD enzymatic activity: FIG. 16A; for CAT enzymatic activity: FIG. 16B. On the procedure:
as §2
The enzymatic activity of two key antioxidants (SOD and CAT) were evaluated. SOD dismutates superoxide radicals to hydrogen peroxide, while CAT directly scavenges hydrogen peroxide. Both enzymes appear to be regulated in response to stress and priming agent pretreatment in a differential manner (FIG. 16). […] In any case, it should be noted that the cellular enzymatic antioxidant battery linked with ROS scavenging is very complex involving several other components (e.g. APX), isoforms in several compartments (e.g. peroxisomes, chloroplasts, mitochondria), as well as non-enzymatic antioxidants (e.g. ascorbic acid, tocopherols and glutathione).

Assay [7] concerns Arabidopsis thaliana Col-0 plants. Briefly: Growth promotion (leaf area, ImageJ leaf series) on MS agar plates. The following applies: 23 DAS; for true leaf 4 and 5 area: vs control samples. How it is done:
An in vitro experiment was carried out in order to evaluate the potential of NOSH and NOSH-A for growth promotion in terms of leaf area increase in Arabidopsis thaliana plants. Arabidopsis thaliana Col-0 plants were used for the purposes of this study. Seeds were placed on MS agar plates containing 10 μM or 100 μM NOSH or NOSH-A (diluted in 20% (v/v) acetone) which were then incubated in the dark at 4° C. for 4 days for stratification purposes. Appropriate control plates were also prepared. The plates were then placed in a growth chamber and leaves were sampled at 23 DAS (days after sowing). Complete leaf series were examined from seven individual plants per treatment (n=7). A complete leaf series consists of all leaves from each individual plant, starting from the cotyledons and including all true leaves, harvested and examined in order of presence on the plant (from older to younger true leaf). These leaves are excised and placed on agar plates where photographs are taken and leaf areas are calculated using ImageJ software (http://imagej.nih.gov/ij/).

Setting [8] is: 100 μM foliar spraying, drought 9 d.
[9] abbreviates: 100 μM, 6 d drought, vs drought-stressed samples.

SMILES strings stand for the structures. “Also recorded” adds a separate entry of the source.

Regarding `O=C(CCCO[N+](=O)[O-])Oc1ccccc1C(=O)Oc1ccc(-c2cc(=S)ss2)cc1` [NOSH-A], in assay [1] (100 μM foliar spraying, 30% (v/v) MetOH, drought 9 d, vs drought-stressed control, FIG. 2), the “lipid peroxidation levels (leaf MDA content)” value is recorded as “significantly lower lipid peroxidation levels”. In addition, the “leaf MDA content (lipid peroxidation)” value in assay [1] (setting [8]) is recorded as “statistically significant protection”. For the same compound, the lipid peroxidation levels entry in assay [1] (100 μM, solvent 20% DMSO or 20% acetone (solvent itself toxic)) is “lower lipid peroxidation levels”. In the assay with Medicago sativa plants [2], the “chlorophyll fluorescence (Fv/Fm)” value is given as “significantly higher” and the stomatal conductance result is reported as “significantly higher”. Moreover, the “MDA content (lipid peroxidation)” value with Medicago sativa plants [3] (setting [9]) is “statistically significant protection”. Moreover, the “MDA content (lipid peroxidation)” value in the assay with Medicago sativa plants [3] (7 d (after rewatering)) is recorded as “maintained low MDA content levels close to those of control, watered samples”. The “nitric oxide (NO) content” value in the assay on Medicago sativa plants [4] is “significantly reversed”. For the same compound, in the assay on Medicago sativa plants [5], the proline content entry is listed as “significantly lower proline content”. In addition, in the assay with Medicago sativa plants [6], the SOD enzymatic activity entry is reported as “significantly induced” and the CAT enzymatic activity entry is recorded as “increased CAT enzymatic activity; also recorded: significantly induced”. Moreover, the “growth induction (macroscopic analysis)” value in assay [7] (10 μM in MS agar) was “visible growth induction”. The “true leaf 4 and 5 area” value in assay [7] (10 μM, n=7, FIG. 22) is reported as “no significant increase”. Further, the “growth induction (macroscopic analysis)” value in assay [7] (100 μM in MS agar) is listed as “contrarily”.
As to `O=C(CCCO[N+](=O)[O-])Oc1ccc(-c2cc(=S)ss2)cc1` [NOSH], in assay [1] (setting [8]), the “leaf MDA content (lipid peroxidation)” value is “lowered”. In addition, in the assay with Medicago sativa plants [2], the “chlorophyll fluorescence (Fv/Fm)” value is on record as “significantly higher” and the stomatal conductance entry was “significantly higher”. The “MDA content (lipid peroxidation)” value in the assay with Medicago sativa plants [3] (setting [9]) is recorded as “statistically significant protection”. For the same compound, in the assay with Medicago sativa plants [3] (7 d (after rewatering)), the “MDA content (lipid peroxidation)” value is recorded as “maintained low MDA content levels close to those of control, watered samples”. Besides, the “nitric oxide (NO) content” value in the assay on Medicago sativa plants [4] was “significantly reversed”. Further, the proline content entry with Medicago sativa plants [5] is “significantly lower proline content”. Besides, in the assay on Medicago sativa plants [6], the SOD enzymatic activity result is “significantly induced” and the CAT enzymatic activity result is “increased CAT enzymatic activity; also recorded: significantly induced”. Further, the “growth induction (macroscopic analysis)” value in assay [7] (10 μM in MS agar) was “visible growth induction”. In assay [7] (10 μM, n=7, FIG. 22), the “overall rosette area (total leaf area per plant), increase compared with control plants” value is given as 37%; the “true leaf 4 and 5 area” value is “significantly higher”. Besides, in assay [7] (100 μM in MS agar), the “growth induction (macroscopic analysis)” value is “contrarily”. The greening of leaves result in assay [7] (MS agar plates, FIGS. 18-21) is listed as “increased greening”.

These data come from patent publication US10071981B2, “Method of priming plants against abiotic stress factors” (Research Foundation of The City University of New York, priority 2014, dated 2018).
